Assay results: ChEMBL document CHEMBL5356993, “Novel pyrazolo[3,4-d]pyrimidine derivatives: design, synthesis, anticancer evaluation, VEGFR-2 inhibition, and antiangiogenic activity” (RSC Med Chem, 2023)

Experiments:
HUVEC [1] = experiment: Antiangiogenic activity against HUVEC cells assessed as wound closure at IC50 incubated for 72 hrs by wound healing assay (reference value: 98.518 %); assay type: functional, Homo sapiens
MDA-MB-468 = experiment: Induction of apoptosis in human MDA-MB-468 cells assessed as increase in caspase-3 level incubated for 2 hrs by ELISA (reference value: 2.109 ng/ml); assay type: functional
HUVEC [2] = experiment: Antiangiogenic activity against HUVEC cells assessed as decrease in healing rate at IC50 incubated for 72 hrs by wound healing assay relative to control; assay type: functional, Homo sapiens; design: scale not given: the % may be the effect or the level left

**Q.** `CCN(CC)CCNC(=O)c1c(C)[nH]c(/C=C2\C(=O)Nc3ccc(F)cc32)c1C` [SUNITINIB] was tested. Which Activity (HUVEC [1]) did it give?
**A.** The Activity was 57.777%.

**Q.** And the Activity (MDA-MB-468)?
**A.** Its Activity is 21.83 ng/mL.

**Q.** What about the Activity (HUVEC [2]) of the same compound?
**A.** The Activity was 41%.
